Assay results taken from PubChem BioAssay AID1963961 (Molecular Pharmacology Branch, DTP, NCI, 2024).
pIC50: −log10 of the molar value. One block for each compound: values may come before it.

Test system: K98450-129-R-PDC multicell spheroids, viability
Assay: Anticancer human tumor K98450-129-R-PDC patient-derived colon adenocarcinoma cell line growth inhibition [PI3K]
Conditions: for pIC50: curve of first compound; for viability, T/C: stronger effect = lower value
Outline: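 Combination activity was assessed by viability in multicellular tumor spheroids carrying HUVEC and MSC components. Agents were tested with PI3K inhibitors from a Cmax-based top dose (or 10 microM) downward in half-log increments.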

[1] = second compound 0.0316 µM, first compound 0.0316 µM
[2] = second compound 0.0316 µM, first compound 0.1 µM
[3] = second compound 0.0316 µM, first compound 0.316 µM
[4] = second compound 0.0316 µM, first compound 1 µM
[5] = second compound 0.0316 µM, first compound 3.16 µM
[6] = second compound 0.0316 µM, first compound 10 µM
[7] = second compound 0.1 µM, first compound 0.0316 µM
[8] = second compound 0.1 µM, first compound 0.1 µM
[9] = second compound 0.1 µM, first compound 0.316 µM
[10] = second compound 0.1 µM, first compound 1 µM
[11] = second compound 0.1 µM, first compound 3.16 µM
[12] = second compound 0.1 µM, first compound 10 µM
[13] = second compound 0.316 µM, first compound 0.0316 µM
[14] = second compound 0.316 µM, first compound 0.1 µM
[15] = second compound 0.316 µM, first compound 0.316 µM
[16] = second compound 0.316 µM, first compound 1 µM
[17] = second compound 0.316 µM, first compound 3.16 µM
[18] = second compound 0.316 µM, first compound 10 µM
[19] = second compound 1 µM, first compound 0.0316 µM
[20] = second compound 1 µM, first compound 0.1 µM
[21] = second compound 1 µM, first compound 0.316 µM
[22] = second compound 1 µM, first compound 1 µM
[23] = second compound 1 µM, first compound 3.16 µM
[24] = second compound 1 µM, first compound 10 µM
[25] = second compound 3.16 µM, first compound 0.0316 µM
[26] = second compound 3.16 µM, first compound 0.1 µM
[27] = second compound 3.16 µM, first compound 0.316 µM
[28] = second compound 3.16 µM, first compound 1 µM
[29] = second compound 3.16 µM, first compound 3.16 µM
[30] = second compound 3.16 µM, first compound 10 µM
[31] = second compound 10 µM, first compound 0.0316 µM
[32] = second compound 10 µM, first compound 0.1 µM
[33] = second compound 10 µM, first compound 0.316 µM
[34] = second compound 10 µM, first compound 1 µM
[35] = second compound 10 µM, first compound 3.16 µM
[36] = second compound 10 µM, first compound 10 µM
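Also: spheroids exposed to agents for seven days before read-out.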

- pIC50 (second compound 0.0316 µM): < 5.00
- pIC50 (second compound 0.1 µM): < 5.00
- pIC50 (second compound 0.316 µM): < 5.00
- pIC50 (second compound 1 µM): < 5.00
- pIC50 (second compound 3.16 µM): < 5.00
- pIC50 (second compound 10 µM): < 5.00
Structure (SMILES): CC(Cn1ccc(-c2ccc(C#N)c(Cl)c2)n1)NC(=O)c1cc(C(C)O)[nH]n1 (stereo not given) + CC(Nc1ncnc2nc[nH]c12)c1cc2cccc(Cl)c2c(=O)n1-c1ccccc1
- viability, T/C [1]: 119%
- viability, T/C [2]: 101%
- viability, T/C [3]: 87.3%
- viability, T/C [4]: 92.5%
- viability, T/C [5]: 102%
- viability, T/C [6]: 101%
- viability, T/C [7]: 106%
- viability, T/C [8]: 113%
- viability, T/C [9]: 107%
- viability, T/C [10]: 96.5%
- viability, T/C [11]: 98.5%
- viability, T/C [12]: 103%
- viability, T/C [13]: 99.5%
- viability, T/C [14]: 109%
- viability, T/C [15]: 92.5%
- viability, T/C [16]: 92.3%
- viability, T/C [17]: 104%
- viability, T/C [18]: 99%
- viability, T/C [19]: 94.7%
- viability, T/C [20]: 95.2%
- viability, T/C [21]: 91.7%
- viability, T/C [22]: 99.1%
- viability, T/C [23]: 93.4%
- viability, T/C [24]: 88%
- viability, T/C [25]: 72.7%
- viability, T/C [26]: 86.1%
- viability, T/C [27]: 86.7%
- viability, T/C [28]: 80.3%
- viability, T/C [29]: 103%
- viability, T/C [30]: 84%
- viability, T/C [31]: 84.1%
- viability, T/C [32]: 87.4%
- viability, T/C [33]: 83%
- viability, T/C [34]: 88.7%
- viability, T/C [35]: 81.8%
- viability, T/C [36]: 84.8%

- pIC50 (second compound 0.0316 µM): 5.90
- pIC50 (second compound 0.1 µM): 5.99
- pIC50 (second compound 0.316 µM): 6.00
- pIC50 (second compound 1 µM): 6.16
- pIC50 (second compound 3.16 µM): 6.36
- pIC50 (second compound 10 µM): 6.78
Structure (SMILES): Cn1cnc2c(F)c(Nc3ccc(Br)cc3Cl)c(C(=O)NOCCO)cc21 + Cc1nc(NC(=O)N2CCCC2C(N)=O)sc1-c1ccnc(C(C)(C)C(F)(F)F)c1
- viability, T/C (second compound 0.0316 µM, first compound 0.00949 µM): 95.2%
- viability, T/C (second compound 0.0316 µM, first compound 0.03 µM): 87.1%
- viability, T/C (second compound 0.0316 µM, first compound 0.0949 µM): 91.9%
- viability, T/C (second compound 0.0316 µM, first compound 0.3 µM): 78.3%
- viability, T/C (second compound 0.0316 µM, first compound 0.949 µM): 61.2%
- viability, T/C (second compound 0.0316 µM, first compound 3 µM): 17.2%
- viability, T/C (second compound 0.1 µM, first compound 0.00949 µM): 107%
- viability, T/C (second compound 0.1 µM, first compound 0.03 µM): 89.1%
- viability, T/C (second compound 0.1 µM, first compound 0.0949 µM): 84.7%
- viability, T/C (second compound 0.1 µM, first compound 0.3 µM): 77%
- viability, T/C (second compound 0.1 µM, first compound 0.949 µM): 54.3%
- viability, T/C (second compound 0.1 µM, first compound 3 µM): 15.6%
- viability, T/C (second compound 0.316 µM, first compound 0.00949 µM): 89%
- viability, T/C (second compound 0.316 µM, first compound 0.03 µM): 89.2%
- viability, T/C (second compound 0.316 µM, first compound 0.0949 µM): 79.1%
- viability, T/C (second compound 0.316 µM, first compound 0.3 µM): 71.2%
- viability, T/C (second compound 0.316 µM, first compound 0.949 µM): 53.5%
- viability, T/C (second compound 0.316 µM, first compound 3 µM): 11.2%
- viability, T/C (second compound 1 µM, first compound 0.00949 µM): 85.3%
- viability, T/C (second compound 1 µM, first compound 0.03 µM): 82.4%
- viability, T/C (second compound 1 µM, first compound 0.0949 µM): 78.9%
- viability, T/C (second compound 1 µM, first compound 0.3 µM): 67.2%
- viability, T/C (second compound 1 µM, first compound 0.949 µM): 43.5%
- viability, T/C (second compound 1 µM, first compound 3 µM): 8.14%
- viability, T/C (second compound 3.16 µM, first compound 0.00949 µM): 76.8%
- viability, T/C (second compound 3.16 µM, first compound 0.03 µM): 74.1%
- viability, T/C (second compound 3.16 µM, first compound 0.0949 µM): 71.3%
- viability, T/C (second compound 3.16 µM, first compound 0.3 µM): 58.5%
- viability, T/C (second compound 3.16 µM, first compound 0.949 µM): 32.1%
- viability, T/C (second compound 3.16 µM, first compound 3 µM): 4.89%
- viability, T/C (second compound 10 µM, first compound 0.00949 µM): 63.1%
- viability, T/C (second compound 10 µM, first compound 0.03 µM): 61.1%
- viability, T/C (second compound 10 µM, first compound 0.0949 µM): 60.3%
- viability, T/C (second compound 10 µM, first compound 0.3 µM): 39.4%
- viability, T/C (second compound 10 µM, first compound 0.949 µM): 10.3%
- viability, T/C (second compound 10 µM, first compound 3 µM): 2.85%

Structure (SMILES): C=CC(=O)N1CCN(c2nc(=O)n(-c3c(C)ccnc3C(C)C)c3nc(-c4c(O)cccc4F)c(F)cc23)C(C)C1 (stereo not given)
- viability, T/C (compound 0.0316 µM): 104% [middle of 4 runs]
- viability, T/C (compound 0.1 µM): 98.4% [middle of 4 runs]
- viability, T/C (compound 0.316 µM): 102% [middle of 4 runs]
- viability, T/C (compound 3.16 µM): 56% [middle of 4 runs]

- pIC50 (second compound 0.0316 µM): < 5.00
- pIC50 (second compound 0.1 µM): < 5.00
- pIC50 (second compound 0.316 µM): < 5.00
- pIC50 (second compound 1 µM): < 5.00
- pIC50 (second compound 3.16 µM): < 5.00
- pIC50 (second compound 10 µM): < 5.00
Structure (SMILES): CNC(=O)c1ccc(N2C(=S)N(c3ccc(C#N)c(C(F)(F)F)c3)C(=O)C2(C)C)cc1F + Cc1nc(NC(=O)N2CCCC2C(N)=O)sc1-c1ccnc(C(C)(C)C(F)(F)F)c1
- viability, T/C [1]: 108%
- viability, T/C [2]: 93%
- viability, T/C [3]: 106%
- viability, T/C [4]: 94.2%
- viability, T/C [5]: 109%
- viability, T/C [6]: 111%
- viability, T/C [7]: 111%
- viability, T/C [8]: 92.2%
- viability, T/C [9]: 102%
- viability, T/C [10]: 89.2%
- viability, T/C [11]: 104%
- viability, T/C [12]: 109%
- viability, T/C [13]: 97%
- viability, T/C [14]: 96.2%
- viability, T/C [15]: 94.8%
- viability, T/C [16]: 97.3%
- viability, T/C [17]: 105%
- viability, T/C [18]: 109%
- viability, T/C [19]: 90.5%
- viability, T/C [20]: 91.2%
- viability, T/C [21]: 87.5%
- viability, T/C [22]: 91.4%
- viability, T/C [23]: 101%
- viability, T/C [24]: 99%
- viability, T/C [25]: 81.1%
- viability, T/C [26]: 88.2%
- viability, T/C [27]: 87.1%
- viability, T/C [28]: 81.8%
- viability, T/C [29]: 92%
- viability, T/C [30]: 83.7%
- viability, T/C [31]: 70.2%
- viability, T/C [32]: 69.2%
- viability, T/C [33]: 74.7%
- viability, T/C [34]: 71.1%
- viability, T/C [35]: 79%
- viability, T/C [36]: 73.5%
